System: Crude diglycosidase
Test: Examination of pH in the conversion into isoflavone aglycons by diglycosidase using soybean materials
Type: biochemical, Penicillium multicolor IAM7153
Parameters: Decomposition efficiency of genistin family in soymilk / Decomposition efficiency of genistin family in defatted soybean / Decomposition efficiency of daidzin family in defatted soybean: concentration or dose not given beside the values
Conditions: for Decomposition efficiency of daidzin family in roasted soy flour: 55° C.
Procedure, shortened: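 HPLC readout: isoflavone glycosides vs aglycons. Substrates: 50 mg soy material (roasted flour, soymilk, defatted bean, concentrated protein), pH 2–11 (HCl/NaOH). Crude diglycosidase solution 1.88 AU/mL, matched pH; 55° C; quenched with ethanol at 0/1/3/6 h; centrifuged 15,000 rpm, 4° C, 10 min.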

[1] = pH4.8, heat treatment of enzyme: no, reaction time 0 h
[2] = pH4.8, heat treatment of enzyme: no, reaction time 1 h
[3] = pH4.8, heat treatment of enzyme: no, reaction time 3 h
[4] = pH4.8, heat treatment of enzyme: no, reaction time 6 h
[5] = pH4.8, heat treatment of enzyme: yes, reaction time 6 h
[6] = pH6.6, heat treatment of enzyme: no, reaction time 0 h
[7] = pH6.6, heat treatment of enzyme: no, reaction time 1 h
[8] = pH6.6, heat treatment of enzyme: no, reaction time 3 h
[9] = pH6.6, heat treatment of enzyme: no, reaction time 6 h
[10] = pH6.6, heat treatment of enzyme: yes, reaction time 6 h

- Decomposition efficiency of daidzin family in concentrated soybean protein (pH1.6, heat treatment of enzyme: no, reaction time 0 h): 3.0%
- Decomposition efficiency of daidzin family in concentrated soybean protein (pH1.6, heat treatment of enzyme: no, reaction time 1 h): 3.3%
- Decomposition efficiency of daidzin family in concentrated soybean protein (pH1.6, heat treatment of enzyme: no, reaction time 3 h): 3.3%
- Decomposition efficiency of daidzin family in concentrated soybean protein (pH1.6, heat treatment of enzyme: no, reaction time 6 h): 3.4%
- Decomposition efficiency of daidzin family in concentrated soybean protein (pH1.6, heat treatment of enzyme: yes, reaction time 6 h): 2.9%
- Decomposition efficiency of daidzin family in roasted soy flour (pH2, heat treatment of enzyme no, reaction time 0 h): 3.5
- Decomposition efficiency of daidzin family in roasted soy flour (pH2, heat treatment of enzyme no, reaction time 1 h): 5.4
- Decomposition efficiency of daidzin family in roasted soy flour (pH2, heat treatment of enzyme no, reaction time 3 h): 4.8
- Decomposition efficiency of daidzin family in roasted soy flour (pH2, heat treatment of enzyme no, reaction time 6 h): 4.5
- Decomposition efficiency of daidzin family in roasted soy flour (pH2, heat treatment of enzyme yes, reaction time 6 h): 3.8
- Decomposition efficiency of daidzin family in soymilk (pH2.3, heat treatment of enzyme: no, reaction time 0 h): 10.5%
- Decomposition efficiency of daidzin family in soymilk (pH2.3, heat treatment of enzyme: no, reaction time 1 h): 45.3%
- Decomposition efficiency of daidzin family in soymilk (pH2.3, heat treatment of enzyme: no, reaction time 3 h): 48.9%
- Decomposition efficiency of daidzin family in soymilk (pH2.3, heat treatment of enzyme: no, reaction time 6 h): 51.5%
- Decomposition efficiency of daidzin family in soymilk (pH2.3, heat treatment of enzyme: yes, reaction time 6 h): 10.2%
- Decomposition efficiency of daidzin family in defatted soybean (pH2.6, heat treatment of enzyme: no, reaction time 0 h): 13.2%
- Decomposition efficiency of daidzin family in defatted soybean (pH2.6, heat treatment of enzyme: no, reaction time 1 h): 21.3%
- Decomposition efficiency of daidzin family in defatted soybean (pH2.6, heat treatment of enzyme: no, reaction time 3 h): 40.9%
- Decomposition efficiency of daidzin family in defatted soybean (pH2.6, heat treatment of enzyme: no, reaction time 6 h): 42.9%
- Decomposition efficiency of daidzin family in defatted soybean (pH2.6, heat treatment of enzyme: yes, reaction time 6 h): 13.0%
- Decomposition efficiency of daidzin family in concentrated soybean protein (pH2.7, heat treatment of enzyme: no, reaction time 0 h): 3.0%
- Decomposition efficiency of daidzin family in concentrated soybean protein (pH2.7, heat treatment of enzyme: no, reaction time 1 h): 40.7%
- Decomposition efficiency of daidzin family in concentrated soybean protein (pH2.7, heat treatment of enzyme: no, reaction time 3 h): 41.6%
- Decomposition efficiency of daidzin family in concentrated soybean protein (pH2.7, heat treatment of enzyme: no, reaction time 6 h): 45.0%
- Decomposition efficiency of daidzin family in concentrated soybean protein (pH2.7, heat treatment of enzyme: yes, reaction time 6 h): 3.2%
- Decomposition efficiency of daidzin family in roasted soy flour (pH3, heat treatment of enzyme no, reaction time 0 h): 3.5
- Decomposition efficiency of daidzin family in roasted soy flour (pH3, heat treatment of enzyme no, reaction time 1 h): 54.0
- Decomposition efficiency of daidzin family in roasted soy flour (pH3, heat treatment of enzyme no, reaction time 3 h): 60.4
- Decomposition efficiency of daidzin family in roasted soy flour (pH3, heat treatment of enzyme no, reaction time 6 h): 59.3
- Decomposition efficiency of daidzin family in roasted soy flour (pH3, heat treatment of enzyme yes, reaction time 6 h): 3.7
- Decomposition efficiency of daidzin family in defatted soybean (pH3.4, heat treatment of enzyme: no, reaction time 0 h): 13.2%
- Decomposition efficiency of daidzin family in defatted soybean (pH3.4, heat treatment of enzyme: no, reaction time 1 h): 60.6%
- Decomposition efficiency of daidzin family in defatted soybean (pH3.4, heat treatment of enzyme: no, reaction time 3 h): 65.5%
- Decomposition efficiency of daidzin family in defatted soybean (pH3.4, heat treatment of enzyme: no, reaction time 6 h): 71.0%
- Decomposition efficiency of daidzin family in defatted soybean (pH3.4, heat treatment of enzyme: yes, reaction time 6 h): 15.1%
- Decomposition efficiency of daidzin family in soymilk (pH3.5, heat treatment of enzyme: no, reaction time 0 h): 10.5%
- Decomposition efficiency of daidzin family in soymilk (pH3.5, heat treatment of enzyme: no, reaction time 1 h): 64.4%
- Decomposition efficiency of daidzin family in soymilk (pH3.5, heat treatment of enzyme: no, reaction time 3 h): 84.9%
- Decomposition efficiency of daidzin family in soymilk (pH3.5, heat treatment of enzyme: no, reaction time 6 h): 92.6%
- Decomposition efficiency of daidzin family in soymilk (pH3.5, heat treatment of enzyme: yes, reaction time 6 h): 10.6%
- Decomposition efficiency of daidzin family in concentrated soybean protein (pH3.7, heat treatment of enzyme: no, reaction time 0 h): 3.0%
- Decomposition efficiency of daidzin family in concentrated soybean protein (pH3.7, heat treatment of enzyme: no, reaction time 1 h): 58.4%
- Decomposition efficiency of daidzin family in concentrated soybean protein (pH3.7, heat treatment of enzyme: no, reaction time 3 h): 67.0%
- Decomposition efficiency of daidzin family in concentrated soybean protein (pH3.7, heat treatment of enzyme: no, reaction time 6 h): 74.8%
- Decomposition efficiency of daidzin family in concentrated soybean protein (pH3.7, heat treatment of enzyme: yes, reaction time 6 h): 3.1%
- Decomposition efficiency of daidzin family in roasted soy flour (pH4, heat treatment of enzyme no, reaction time 0 h): 3.5
- Decomposition efficiency of daidzin family in roasted soy flour (pH4, heat treatment of enzyme no, reaction time 1 h): 65.6
- Decomposition efficiency of daidzin family in roasted soy flour (pH4, heat treatment of enzyme no, reaction time 3 h): 79.5
- Decomposition efficiency of daidzin family in roasted soy flour (pH4, heat treatment of enzyme no, reaction time 6 h): 88.9
- Decomposition efficiency of daidzin family in roasted soy flour (pH4, heat treatment of enzyme yes, reaction time 6 h): 3.5
- Decomposition efficiency of daidzin family in defatted soybean [1]: 15.7%
- Decomposition efficiency of daidzin family in soymilk [1]: 9.0%
- Decomposition efficiency of daidzin family in defatted soybean [2]: 59.5%
- Decomposition efficiency of daidzin family in soymilk [2]: 52.6%
- Decomposition efficiency of daidzin family in defatted soybean [3]: 63.3%
- Decomposition efficiency of daidzin family in soymilk [3]: 66.1%
- Decomposition efficiency of daidzin family in defatted soybean [4]: 69.5%
- Decomposition efficiency of daidzin family in soymilk [4]: 79.7%
- Decomposition efficiency of daidzin family in defatted soybean [5]: 24.5%
- Decomposition efficiency of daidzin family in soymilk [5]: 9.1%
- Decomposition efficiency of daidzin family in roasted soy flour (pH5, heat treatment of enzyme no, reaction time 0 h): 3.5
- Decomposition efficiency of daidzin family in roasted soy flour (pH5, heat treatment of enzyme no, reaction time 1 h): 61.5
- Decomposition efficiency of daidzin family in roasted soy flour (pH5, heat treatment of enzyme no, reaction time 3 h): 75.3
- Decomposition efficiency of daidzin family in roasted soy flour (pH5, heat treatment of enzyme no, reaction time 6 h): 84.8
- Decomposition efficiency of daidzin family in roasted soy flour (pH5, heat treatment of enzyme yes, reaction time 6 h): 4.4
- Decomposition efficiency of daidzin family in concentrated soybean protein (pH5.1, heat treatment of enzyme: no, reaction time 0 h): 3.0%
- Decomposition efficiency of daidzin family in concentrated soybean protein (pH5.1, heat treatment of enzyme: no, reaction time 1 h): 56.6%
- Decomposition efficiency of daidzin family in concentrated soybean protein (pH5.1, heat treatment of enzyme: no, reaction time 3 h): 63.0%
- Decomposition efficiency of daidzin family in concentrated soybean protein (pH5.1, heat treatment of enzyme: no, reaction time 6 h): 68.8%
- Decomposition efficiency of daidzin family in concentrated soybean protein (pH5.1, heat treatment of enzyme: yes, reaction time 6 h): 3.2%
- Decomposition efficiency of daidzin family in defatted soybean (pH5.4, heat treatment of enzyme: no, reaction time 0 h): 15.7%
- Decomposition efficiency of daidzin family in defatted soybean (pH5.4, heat treatment of enzyme: no, reaction time 1 h): 55.8%
- Decomposition efficiency of daidzin family in defatted soybean (pH5.4, heat treatment of enzyme: no, reaction time 3 h): 58.5%
- Decomposition efficiency of daidzin family in defatted soybean (pH5.4, heat treatment of enzyme: no, reaction time 6 h): 63.1%
- Decomposition efficiency of daidzin family in defatted soybean (pH5.4, heat treatment of enzyme: yes, reaction time 6 h): 55.1%
- Decomposition efficiency of daidzin family in soymilk (pH6.2, heat treatment of enzyme: no, reaction time 0 h): 9.0%
- Decomposition efficiency of daidzin family in soymilk (pH6.2, heat treatment of enzyme: no, reaction time 1 h): 45.9%
- Decomposition efficiency of daidzin family in soymilk (pH6.2, heat treatment of enzyme: no, reaction time 3 h): 53.6%
- Decomposition efficiency of daidzin family in soymilk (pH6.2, heat treatment of enzyme: no, reaction time 6 h): 58.1%
- Decomposition efficiency of daidzin family in soymilk (pH6.2, heat treatment of enzyme: yes, reaction time 6 h): 9.7%
- Decomposition efficiency of daidzin family in roasted soy flour (pH6.5, heat treatment of enzyme no, reaction time 0 h): 3.4
- Decomposition efficiency of daidzin family in roasted soy flour (pH6.5, heat treatment of enzyme no, reaction time 1 h): 54.6
- Decomposition efficiency of daidzin family in roasted soy flour (pH6.5, heat treatment of enzyme no, reaction time 3 h): 60.8
- Decomposition efficiency of daidzin family in roasted soy flour (pH6.5, heat treatment of enzyme no, reaction time 6 h): 65.6
- Decomposition efficiency of daidzin family in roasted soy flour (pH6.5, heat treatment of enzyme yes, reaction time 6 h): 4.7
- Decomposition efficiency of daidzin family in concentrated soybean protein [6]: 3.0%
- Decomposition efficiency of daidzin family in defatted soybean [6]: 13.2%
- Decomposition efficiency of daidzin family in concentrated soybean protein [7]: 51.0%
- Decomposition efficiency of daidzin family in defatted soybean [7]: 54.1%
- Decomposition efficiency of daidzin family in concentrated soybean protein [8]: 57.1%
- Decomposition efficiency of daidzin family in defatted soybean [8]: 56.0%
- Decomposition efficiency of daidzin family in concentrated soybean protein [9]: 58.8%
- Decomposition efficiency of daidzin family in defatted soybean [9]: 58.2%
- Decomposition efficiency of daidzin family in concentrated soybean protein [10]: 3.2%
- Decomposition efficiency of daidzin family in defatted soybean [10]: 49.5%
- Decomposition efficiency of daidzin family in soymilk (pH7.2, heat treatment of enzyme: no, reaction time 0 h): 9.0%
- Decomposition efficiency of daidzin family in soymilk (pH7.2, heat treatment of enzyme: no, reaction time 1 h): 43.6%
- Decomposition efficiency of daidzin family in soymilk (pH7.2, heat treatment of enzyme: no, reaction time 3 h): 47.6%
- Decomposition efficiency of daidzin family in soymilk (pH7.2, heat treatment of enzyme: no, reaction time 6 h): 51.8%
- Decomposition efficiency of daidzin family in soymilk (pH7.2, heat treatment of enzyme: yes, reaction time 6 h): 10.2%
- Decomposition efficiency of daidzin family in defatted soybean (pH7.8, heat treatment of enzyme: no, reaction time 0 h): 13.3%
- Decomposition efficiency of daidzin family in defatted soybean (pH7.8, heat treatment of enzyme: no, reaction time 1 h): 43.1%
- Decomposition efficiency of daidzin family in defatted soybean (pH7.8, heat treatment of enzyme: no, reaction time 3 h): 48.4%
- Decomposition efficiency of daidzin family in defatted soybean (pH7.8, heat treatment of enzyme: no, reaction time 6 h): 51.9%
- Decomposition efficiency of daidzin family in defatted soybean (pH7.8, heat treatment of enzyme: yes, reaction time 6 h): 21.7%
- Decomposition efficiency of daidzin family in roasted soy flour (pH8.5, heat treatment of enzyme no, reaction time 0 h): 3.8
- Decomposition efficiency of daidzin family in roasted soy flour (pH8.5, heat treatment of enzyme no, reaction time 1 h): 36.9
- Decomposition efficiency of daidzin family in roasted soy flour (pH8.5, heat treatment of enzyme no, reaction time 3 h): 46.4
- Decomposition efficiency of daidzin family in roasted soy flour (pH8.5, heat treatment of enzyme no, reaction time 6 h): 51.8
- Decomposition efficiency of daidzin family in roasted soy flour (pH8.5, heat treatment of enzyme yes, reaction time 6 h): 3.9
- Decomposition efficiency of daidzin family in concentrated soybean protein (pH8.6, heat treatment of enzyme: no, reaction time 0 h): 3.2%
- Decomposition efficiency of daidzin family in concentrated soybean protein (pH8.6, heat treatment of enzyme: no, reaction time 1 h): 9.9%
- Decomposition efficiency of daidzin family in concentrated soybean protein (pH8.6, heat treatment of enzyme: no, reaction time 3 h): 15.9%
- Decomposition efficiency of daidzin family in concentrated soybean protein (pH8.6, heat treatment of enzyme: no, reaction time 6 h): 27.4%
- Decomposition efficiency of daidzin family in concentrated soybean protein (pH8.6, heat treatment of enzyme: yes, reaction time 6 h): 3.2%
- Decomposition efficiency of daidzin family in soymilk (pH11.6, heat treatment of enzyme: no, reaction time 0 h): 8.7%
- Decomposition efficiency of daidzin family in soymilk (pH11.6, heat treatment of enzyme: no, reaction time 1 h): 43.6%
- Decomposition efficiency of daidzin family in soymilk (pH11.6, heat treatment of enzyme: no, reaction time 3 h): 49.6%
- Decomposition efficiency of daidzin family in soymilk (pH11.6, heat treatment of enzyme: no, reaction time 6 h): 52.3%
- Decomposition efficiency of daidzin family in soymilk (pH11.6, heat treatment of enzyme: yes, reaction time 6 h): 9.3%
Compound: O=c1c(-c2ccc(O)cc2)coc2cc(O)ccc12 [daidzein]
